# In ChEMBL document CHEMBL1201861, “Genomics of Drug Sensitity in Cancer screening data, Wellcome Trust Sanger Institute”:
# What was measured:
# Experiment in all cases: cells
# [1] = tested on: D-502MG; format: functional, cell-based; settings: Homo sapiens
# Description: SANGER: Inhibition of human D-502MG cell growth in a cell viability assay.
# [2] = tested on: DJM-1; format: functional, cell-based; settings: Homo sapiens;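 also: growth inhibition of human DJM-1 cells, read out by a cell viability assay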
# Description: SANGER: Inhibition of human DJM-1 cell growth in a cell viability assay.
# [3] = tested on: EKVX; format: functional, cell-based; settings: Homo sapiens;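 also: growth inhibition of human EKVX cells, read out with a cell viability assay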
# Description: SANGER: Inhibition of human EKVX cell growth in a cell viability assay.
# [4] = tested on: ES4; format: functional, cell-based; settings: Homo sapiens;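 also: growth inhibition of human ES4 cells, read out by a cell viability assay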
# Description: SANGER: Inhibition of human ES4 cell growth in a cell viability assay.
# [5] = tested on: ES5; format: functional, cell-based; settings: Homo sapiens;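 also: growth inhibition of human ES5 cells, read out by a cell viability assay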
# Description: SANGER: Inhibition of human ES5 cell growth in a cell viability assay.
# [6] = tested on: ES6; format: functional, cell-based; settings: Homo sapiens;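 also: growth inhibition of human ES6 cells, read out with a cell viability assay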
# Description: SANGER: Inhibition of human ES6 cell growth in a cell viability assay.
# [7] = tested on: EW-13; format: functional, cell-based; settings: Homo sapiens;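 also: growth inhibition of EW-13 cells, read out with a cell viability assay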
# Description: SANGER: Inhibition of human EW-13 cell growth in a cell viability assay.
# [8] = tested on: GI-1; format: functional, cell-based; settings: Homo sapiens;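 also: growth inhibition of human GI-1 cells, measured with a cell viability readout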
# Description: SANGER: Inhibition of human GI-1 cell growth in a cell viability assay.
# [9] = tested on: HAL-01; format: functional, cell-based; settings: Homo sapiens;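 also: growth inhibition of human HAL-01 cells, read out with a cell viability assay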
# Description: SANGER: Inhibition of human HAL-01 cell growth in a cell viability assay.
# [10] = tested on: HCC1187; format: functional, cell-based; settings: Homo sapiens;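 also: growth inhibition of HCC1187 cells, read out with a cell viability assay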
# Description: SANGER: Inhibition of human HCC1187 cell growth in a cell viability assay.
# [11] = tested on: HCC2218; format: functional, cell-based; settings: Homo sapiens;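 also: cell viability assay read-out, with IC50 given as the concentration that inhibits growth of the cell line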
# Description: SANGER: Inhibition of human HCC2218 cell growth in a cell viability assay.
# [12] = tested on: HDLM-2; format: functional, cell-based; settings: Homo sapiens;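 also: cell viability assay measuring suppression of HDLM-2 proliferation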
# Description: SANGER: Inhibition of human HDLM-2 cell growth in a cell viability assay.
# [13] = tested on: HOP-62; format: functional, cell-based; settings: Homo sapiens;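 also: cell growth inhibition determined with a viability assay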
# Description: SANGER: Inhibition of human HOP-62 cell growth in a cell viability assay.
# [14] = tested on: HOS; format: functional, cell-based; settings: Homo sapiens;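 also: growth inhibition of human HOS cells, read out with a cell viability assay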
# Description: SANGER: Inhibition of human HOS cell growth in a cell viability assay.
# [15] = tested on: JVM-2; format: functional, cell-based; settings: Homo sapiens;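 also: growth inhibition of JVM-2 cells determined by a cell viability assay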
# Description: SANGER: Inhibition of human JVM-2 cell growth in a cell viability assay.
# [16] = tested on: JVM-3; format: functional, cell-based; settings: Homo sapiens;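 also: growth inhibition of human JVM-3 cells, read out with a cell viability assay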
# Description: SANGER: Inhibition of human JVM-3 cell growth in a cell viability assay.
# [17] = tested on: KARPAS-299; format: functional, cell-based; settings: Homo sapiens
# Description: SANGER: Inhibition of human KARPAS-299 cell growth in a cell viability assay.
# [18] = tested on: KARPAS-45; format: functional, cell-based; settings: Homo sapiens;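 also: inhibition of cell line growth, read out through a viability assay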
# Description: SANGER: Inhibition of human KARPAS-45 cell growth in a cell viability assay.
# [19] = tested on: KG-1; format: functional, cell-based; settings: Homo sapiens;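 also: growth inhibition of KG-1 cells, read out by a cell viability assay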
# Description: SANGER: Inhibition of human KG-1 cell growth in a cell viability assay.
# [20] = tested on: KM-H2; format: functional, cell-based; settings: Homo sapiens;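 also: growth inhibition of KM-H2 cells, read out by a cell viability assay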
# Description: SANGER: Inhibition of human KM-H2 cell growth in a cell viability assay.
# [21] = tested on: KNS-81-FD; format: functional, cell-based; settings: Homo sapiens;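 also: growth inhibition of KNS-81-FD cells, read out with a cell viability assay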
# Description: SANGER: Inhibition of human KNS-81-FD cell growth in a cell viability assay.
# [22] = tested on: LB1047-RCC; format: functional, cell-based; settings: Homo sapiens;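 also: inhibition of cell growth, determined with a cell viability assay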
# Description: SANGER: Inhibition of human LB1047-RCC cell growth in a cell viability assay.
# [23] = tested on: LB2518-MEL; format: functional, cell-based; settings: Homo sapiens;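 also: growth inhibition of human LB2518-MEL cells, measured with a cell viability assay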
# Description: SANGER: Inhibition of human LB2518-MEL cell growth in a cell viability assay.
# [24] = tested on: MHH-PREB-1; format: functional, cell-based; settings: Homo sapiens;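 also: cell viability assay measuring inhibition of proliferation of human MHH-PREB-1 cells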
# Description: SANGER: Inhibition of human MHH-PREB-1 cell growth in a cell viability assay.
# [25] = tested on: MMAC-SF; format: functional, cell-based; settings: Homo sapiens;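 also: growth inhibition of human MMAC-SF cells, read out with a cell viability assay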
# Description: SANGER: Inhibition of human MMAC-SF cell growth in a cell viability assay.
# [26] = tested on: MOLT-16; format: functional, cell-based; settings: Homo sapiens;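 also: growth inhibition of human MOLT-16 cells, read out with a cell viability assay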
# Description: SANGER: Inhibition of human MOLT-16 cell growth in a cell viability assay.
# [27] = tested on: MeWo; format: functional, cell-based; settings: Homo sapiens;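 also: growth inhibition of MeWo cells, determined by a cell viability readout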
# Description: SANGER: Inhibition of human Mewo cell growth in a cell viability assay.
# [28] = tested on: NB13; format: functional, cell-based; settings: Homo sapiens;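 also: cell viability readout measuring growth inhibition of human NB13 cells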
# Description: SANGER: Inhibition of human NB13 cell growth in a cell viability assay.
# [29] = tested on: NB69; format: functional, cell-based; settings: Homo sapiens;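 also: growth inhibition of NB69 cells, determined by a cell viability assay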
# Description: SANGER: Inhibition of human NB69 cell growth in a cell viability assay.
# [30] = tested on: NCI-H1304; format: functional, cell-based; settings: Homo sapiens;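 also: growth inhibition of the cancer cell line, measured in a cell viability assay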
# Description: SANGER: Inhibition of human NCI-H1304 cell growth in a cell viability assay.
# [31] = tested on: NCI-H1395; format: functional, cell-based; settings: Homo sapiens;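 also: cell viability assay read-out quantifying reduced proliferation of human NCI-H1395 cells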
# Description: SANGER: Inhibition of human NCI-H1395 cell growth in a cell viability assay.
# [32] = tested on: NCI-H1563; format: functional, cell-based; settings: Homo sapiens;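 also: growth inhibition of human NCI-H1563 cells, read out with a cell viability assay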
# Description: SANGER: Inhibition of human NCI-H1563 cell growth in a cell viability assay.
# [33] = tested on: NCI-H1581; format: functional, cell-based; settings: Homo sapiens;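 also: cell growth inhibition read out by a viability assay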
# Description: SANGER: Inhibition of human NCI-H1581 cell growth in a cell viability assay.
# [34] = tested on: NCI-H1650; format: functional, cell-based; settings: Homo sapiens;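 also: growth inhibition of human NCI-H1650 cells measured by a cell viability assay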
# Description: SANGER: Inhibition of human NCI-H1650 cell growth in a cell viability assay.
# [35] = tested on: NCI-H1693; format: functional, cell-based; settings: Homo sapiens;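 also: growth inhibition of the human cell line, read out with a cell viability assay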
# Description: SANGER: Inhibition of human NCI-H1693 cell growth in a cell viability assay.
# [36] = tested on: NCI-H1838; format: functional, cell-based; settings: Homo sapiens;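 also: growth inhibition of NCI-H1838 cells, determined with a cell viability readout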
# Description: SANGER: Inhibition of human NCI-H1838 cell growth in a cell viability assay.
# [37] = tested on: OMC-1; format: functional, cell-based; settings: Homo sapiens;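 also: growth inhibition of the OMC-1 cell line, measured by a cell viability assay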
# Description: SANGER: Inhibition of human OMC-1 cell growth in a cell viability assay.
# [38] = tested on: RCC10RGB; format: functional, cell-based; settings: Homo sapiens;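 also: growth inhibition of human RCC10RGB cells, read out by a cell viability assay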
# Description: SANGER: Inhibition of human RCC10RGB cell growth in a cell viability assay.
# [39] = tested on: RPMI-8226; format: functional, cell-based; settings: Homo sapiens
# Description: SANGER: Inhibition of human RPMI-8226 cell growth in a cell viability assay.
# [40] = tested on: RPMI-8866; format: functional, cell-based; settings: Homo sapiens
# Description: SANGER: Inhibition of human RPMI-8866 cell growth in a cell viability assay.
# [41] = tested on: Ramos-2G6-4C10; format: functional, cell-based; settings: Homo sapiens;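 also: growth inhibition of the cell line, measured by a cell viability read-out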
# Description: SANGER: Inhibition of human Ramos-2G6-4C10 cell growth in a cell viability assay.
# [42] = tested on: SCH; format: functional, cell-based; settings: Homo sapiens;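 also: growth inhibition of human SCH cells, read out in a cell viability assay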
# Description: SANGER: Inhibition of human SCH cell growth in a cell viability assay.
# [43] = tested on: SF-539; format: functional, cell-based; settings: Homo sapiens;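 also: Read-out is a cell viability assay, with IC50 reflecting inhibition of cell growth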
# Description: SANGER: Inhibition of human SF539 cell growth in a cell viability assay.
# [44] = tested on: SK-LMS-1; format: functional, cell-based; settings: Homo sapiens;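 also: growth inhibition of human SK-LMS-1 cells, read out with a cell viability assay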
# Description: SANGER: Inhibition of human SK-LMS-1 cell growth in a cell viability assay.
# [45] = tested on: SK-MEL-1; format: functional, cell-based; settings: Homo sapiens;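 also: growth inhibition of human SK-MEL-1 cells, read out by a cell viability assay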
# Description: SANGER: Inhibition of human SK-MEL-1 cell growth in a cell viability assay.
# [46] = tested on: SK-N-DZ; format: functional, cell-based; settings: Homo sapiens;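 also: growth inhibition of the cancer cell line, read out through a viability assay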
# Description: SANGER: Inhibition of human SK-N-DZ cell growth in a cell viability assay.
# [47] = tested on: SK-NEP-1; format: functional, cell-based; settings: Homo sapiens;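 also: growth inhibition of human SK-NEP-1 cells, read out by a cell viability assay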
# Description: SANGER: Inhibition of human SK-NEP-1 cell growth in a cell viability assay.
# [48] = tested on: SK-UT-1; format: functional, cell-based; settings: Homo sapiens;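 also: growth inhibition of SK-UT-1 cells, measured by a cell viability assay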
# Description: SANGER: Inhibition of human SK-UT-1 cell growth in a cell viability assay.
# [49] = tested on: SW-620; format: functional, cell-based; settings: Homo sapiens;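 also: growth inhibition of human SW-620 cells, measured by a cell viability assay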
# Description: SANGER: Inhibition of human SW620 cell growth in a cell viability assay.
# [50] = tested on: 697; format: functional, cell-based; settings: Homo sapiens
# Description: SANGER: Inhibition of human 697 cell growth in a cell viability assay.
# [51] = tested on: A4-Fuk; format: functional, cell-based; settings: Homo sapiens;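 also: growth inhibition of A4-Fuk cells, read out by a cell viability assay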
# Description: SANGER: Inhibition of human A4-Fuk cell growth in a cell viability assay.
# [52] = tested on: A498; format: functional, cell-based; settings: Homo sapiens;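 also: growth inhibition of human A498 cells, read out with a cell viability assay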
# Description: SANGER: Inhibition of human A498 cell growth in a cell viability assay.
# [53] = tested on: ATN-1; format: functional, cell-based; settings: Homo sapiens;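 also: growth inhibition of human ATN-1 cells, read out with a cell viability assay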
# Description: SANGER: Inhibition of human ATN-1 cell growth in a cell viability assay.
# [54] = tested on: BB65-RCC; format: functional, cell-based; settings: Homo sapiens;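 also: growth inhibition of the cell line, measured with a cell viability assay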
# Description: SANGER: Inhibition of human BB65-RCC cell growth in a cell viability assay.
# [55] = tested on: BV-173; format: functional, cell-based; settings: Homo sapiens
# Description: SANGER: Inhibition of human BV-173 cell growth in a cell viability assay.
# [56] = tested on: Becker; format: functional, cell-based; settings: Homo sapiens
# Description: SANGER: Inhibition of human Becker cell growth in a cell viability assay.
# [57] = tested on: CAL-12T; format: functional, cell-based, Homo sapiens; settings: Homo sapiens, CAL-12T
# Description: SANGER: Inhibition of human CAL-12T cell growth in a cell viability assay.
# [58] = tested on: TE-8; format: functional, cell-based; settings: Homo sapiens
# Description: SANGER: Inhibition of human TE-8 cell growth in a cell viability assay.
# [59] = tested on: TGBC1TKB; format: functional, cell-based; settings: Homo sapiens
# Description: SANGER: Inhibition of human TGBC1TKB cell growth in a cell viability assay.
# [60] = tested on: TGBC24TKB; format: functional, cell-based; settings: Homo sapiens
# Description: SANGER: Inhibition of human TGBC24TKB cell growth in a cell viability assay.
smiles,measurement,setting,value
C[C@]12O[C@H](C[C@]1(O)CO)n1c3ccccc3c3c4c(c5c6ccccc6n2c5c31)CNC4=O [LESTAURTINIB],IC50,[1],411 nM
same,IC50,[2],659 nM
same,IC50,[3],606 nM
same,IC50,[4],128 nM
same,IC50,[5],16.5 nM
same,IC50,[6],> 2000 nM
same,IC50,[7],> 2000 nM
same,IC50,[8],546 nM
same,IC50,[9],306 nM
same,IC50,[10],> 2000 nM
same,IC50,[11],> 2000 nM
same,IC50,[12],> 2000 nM
same,IC50,[13],> 2000 nM
same,IC50,[14],232 nM
same,IC50,[15],> 2000 nM
same,IC50,[16],29.2 nM
same,IC50,[17],> 2000 nM
same,IC50,[18],52.4 nM
same,IC50,[19],409 nM
same,IC50,[20],> 2000 nM
same,IC50,[21],1480 nM
same,IC50,[22],76.9 nM
same,IC50,[23],405 nM
same,IC50,[24],27.2 nM
same,IC50,[25],72.1 nM
same,IC50,[26],89.8 nM
same,IC50,[27],718 nM
same,IC50,[28],469 nM
same,IC50,[29],415 nM
same,IC50,[30],> 2000 nM
same,IC50,[31],281 nM
same,IC50,[32],> 2000 nM
same,IC50,[33],356 nM
same,IC50,[34],> 2000 nM
same,IC50,[35],> 2000 nM
same,IC50,[36],> 2000 nM
same,IC50,[37],1180 nM
same,IC50,[38],> 2000 nM
same,IC50,[39],386 nM
same,IC50,[40],123 nM
same,IC50,[41],206 nM
same,IC50,[42],> 2000 nM
same,IC50,[43],175 nM
same,IC50,[44],> 2000 nM
same,IC50,[45],> 2000 nM
same,IC50,[46],258 nM
same,IC50,[47],112 nM
same,IC50,[48],354 nM
same,IC50,[49],557 nM
same,IC50,[50],26.5 nM
same,IC50,[51],82.7 nM
same,IC50,[52],221 nM
same,IC50,[53],104 nM
same,IC50,[54],23 nM
same,IC50,[55],369 nM
same,IC50,[56],724 nM
same,IC50,[57],870 nM
same,IC50,[58],667 nM
same,IC50,[59],> 2000 nM
same,IC50,[60],> 2000 nM
